Consider 24 compounds from US10689354B2, “Aminoazole derivative” (Teijin Pharma Limited, priority 2015, dated 2020).

Assay [1] has as its target T1, androgen receptor (AR-LBD) (Rattus norvegicus, UniProt P15207).
T1 construct: 5 μL of 2×AR-LBD/Fluoromone AL Red Complex contained in the kit; purchased Invitrogen
T1 sequence (P15207 651-882 limits assumed): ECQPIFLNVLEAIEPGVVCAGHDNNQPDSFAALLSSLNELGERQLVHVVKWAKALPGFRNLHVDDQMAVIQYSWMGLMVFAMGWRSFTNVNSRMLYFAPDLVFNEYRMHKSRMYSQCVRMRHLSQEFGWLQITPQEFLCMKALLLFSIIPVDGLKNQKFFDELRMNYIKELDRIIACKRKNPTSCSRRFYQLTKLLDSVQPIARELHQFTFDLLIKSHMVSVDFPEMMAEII
The assay is described as follows: Evaluation of androgen receptor affinity (PolarScreen Androgen Receptor Competitor Assay Kit, Red; fluorescence polarization). The conditions noted are these: 22° C. for 5 hours, relative to binding rate of 1 μM DHT, read-out: AR affinity (pEC50) (converted). In short, it runs like this: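 FP competition: compound + AR-LBD/Fluoromone AL Red tracer complex, 22° C, 5 h. Reference 1 μM DHT binding rate; pEC50 by 4-parameter fit.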
On the technique in general: Polarisation of emitted light reports the rotation of a fluorescent probe.

A further assay addresses T2, human androgen receptor (Homo sapiens, UniProt P10275).
T2 construct: expressed in transfected cells; host or cells: HEK293
T2 sequence (P10275 1-920): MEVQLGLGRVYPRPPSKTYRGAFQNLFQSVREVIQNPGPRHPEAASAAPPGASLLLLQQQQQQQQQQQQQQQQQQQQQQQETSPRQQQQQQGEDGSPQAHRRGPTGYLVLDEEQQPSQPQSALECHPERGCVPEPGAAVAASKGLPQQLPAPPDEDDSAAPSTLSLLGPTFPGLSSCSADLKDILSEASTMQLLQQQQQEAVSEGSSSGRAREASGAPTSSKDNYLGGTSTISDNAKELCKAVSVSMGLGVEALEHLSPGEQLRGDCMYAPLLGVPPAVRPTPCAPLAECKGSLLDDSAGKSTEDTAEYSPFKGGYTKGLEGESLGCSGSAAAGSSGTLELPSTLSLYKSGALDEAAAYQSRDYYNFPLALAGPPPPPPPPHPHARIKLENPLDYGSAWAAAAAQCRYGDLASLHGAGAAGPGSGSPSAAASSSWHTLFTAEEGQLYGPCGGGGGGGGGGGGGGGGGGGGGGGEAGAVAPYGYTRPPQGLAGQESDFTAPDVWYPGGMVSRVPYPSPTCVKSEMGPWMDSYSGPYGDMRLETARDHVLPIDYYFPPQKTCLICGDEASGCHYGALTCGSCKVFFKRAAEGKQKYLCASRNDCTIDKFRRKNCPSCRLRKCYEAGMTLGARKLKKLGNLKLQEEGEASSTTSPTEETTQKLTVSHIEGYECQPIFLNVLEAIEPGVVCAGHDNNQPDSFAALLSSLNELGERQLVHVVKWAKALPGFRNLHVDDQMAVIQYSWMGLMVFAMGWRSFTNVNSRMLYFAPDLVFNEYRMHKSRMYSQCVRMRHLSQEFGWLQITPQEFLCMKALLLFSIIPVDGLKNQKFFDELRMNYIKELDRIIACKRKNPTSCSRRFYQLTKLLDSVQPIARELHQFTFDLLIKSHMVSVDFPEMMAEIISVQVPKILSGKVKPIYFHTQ
The assay can be described thus: Reporter assay of an androgen receptor responsive sequence (luciferase, transiently transfected HEK293 cells). It counts as cell-based. The conditions noted are these: 24 hours incubation, relative to activity of 100 nM DHT, read-out: AR transcriptive activity (pEC50) (converted). In short, it runs like this:
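Agonism scored as pEC50, fitted by 4-parameter curve against the response to 100 nM DHT, from dual-luciferase readout after 24 h compound treatment. Cells were HEK293 co-transfected (3 h) with human AR expression vector, androgen-responsive firefly reporter and Renilla control, in charcoal-stripped serum.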
A general note: In a reporter assay the amount or activity of a reporter protein is the signal.

Turning to `Cc1sc(N(CC2CCCCCC2)c2ccc(C#N)cc2)nc1C(=O)NS(C)(=O)=O` [Compound 365, 2-[4-cyano-N-(cycloheptylmethyl)anilino]-5-methyl-N-methylsulfonyl-thiazole-4-carboxamide], the EC50 in assay [1] is 25.1 nM; on human androgen receptor, 631 nM.
As to `Cc1sc(N(CC2=CCCCC2)c2ccc(C#N)cc2)nc1C(=O)NS(C)(=O)=O` [Compound 366, 2-[4-cyano-N-(cyclohexen-1-ylmethyl)anilino]-5-methyl-N-methylsulfonyl-thiazole-4-carboxamide], the EC50 in assay [1] is 39.8 nM; at human androgen receptor it was 50.1 nM.
For `Cc1sc(N(CCOCc2ccccc2)c2ccc(C#N)cc2)nc1C(=O)NS(C)(=O)=O` [Compound 367, 2-[N-(2-benzyloxyethyl)-4-cyano-anilino]-5-methyl-N-methylsulfonyl-thiazole-4-carboxamide], the results for the EC50 (in assay [1]; on human androgen receptor) were 158 nM and over 10000 nM, respectively.
In the case of `Cc1sc(N(CCCOc2ccccc2)c2ccc(C#N)cc2)nc1C(=O)NS(C)(=O)=O` [Compound 368, 2-[4-cyano-N-(3-phenoxypropyl)anilino]-5-methyl-N-methylsulfonyl-thiazole-4-carboxamide], the EC50 in assay [1] was 100 nM; at human androgen receptor it was over 10000 nM.
Turning to `Cc1sc(N(CCCCOc2ccccc2)c2ccc(C#N)cc2)nc1C(=O)NS(C)(=O)=O` [Compound 369, 2-[4-cyano-N-(4-phenoxybutyl)anilino]-5-methyl-N-methylsulfonyl-thiazole-4-carboxamide], the EC50 in assay [1] is 79.4 nM; at human androgen receptor it was over 10000 nM.
`Cc1sc(N(CCOC2CCCCC2)c2ccc(C#N)cc2)nc1C(=O)NS(C)(=O)=O` [Compound 370, 2-[4-cyano-N-[2-(cyclohexoxy)ethyl]anilino]-5-methyl-N-methylsulfonyl-thiazole-4-carboxamide]: the EC50 in assay [1] is 79.4 nM; on human androgen receptor it was 2510 nM.
Turning to `Cc1sc(N(Cc2ccccc2)c2ccc(C#N)cc2)nc1C(=O)NS(=O)(=O)CC(C)C` [Compound 371, 2-(N-benzyl-4-cyano-anilino)-N-isobutylsulfonyl-5-methyl-thiazole-4-carboxamide], the EC50 was 200 nM in assay [1] and over 10000 nM on human androgen receptor.
Turning to `Cc1sc(N(Cc2ccccc2)c2ccc(C#N)cc2)nc1C(=O)NS(=O)(=O)CC(F)(F)F` [Compound 372, 2-(N-benzyl-4-cyano-anilino)-5-methyl-N-(2,2,2-trifluoroethylsulfonyl)thiazole-4-carboxamide], the EC50 in assay [1] is 31.6 nM; on human androgen receptor, 1260 nM.
The like results for `Cc1sc(N(Cc2ccccc2)c2ccc(C#N)cc2)nc1C(=O)NS(=O)(=O)Cc1ccccc1` [Compound 374, 2-(N-benzyl-4-cyano-anilino)-N-benzylsulfonyl-5-methyl-thiazole-4-carboxamide] were, in that order, 39.8 nM and 501 nM.
For the compound `COc1ccccc1CCN(c1ccc(C#N)cc1)c1nc(C(=O)NS(C)(=O)=O)c(C)s1` [Compound 376, 2-[4-cyano-N-[2-(2-methoxyphenyl)ethyl]anilino]-5-methyl-N-methylsulfonyl-thiazole-4-carboxamide], the EC50 in assay [1] is 100 nM; on human androgen receptor, 6310 nM.
Turning to `Cc1sc(N(Cc2cccc3ccsc23)c2ccc(C#N)cc2)nc1C(=O)NS(C)(=O)=O` [Compound 378, 2-[N-(benzothiophen-7-ylmethyl)-4-cyano-anilino]-5-methyl-N-methylsulfonyl-thiazole-4-carboxamide], the EC50 in assay [1] was 25.1 nM; on human androgen receptor, 50.1 nM.
With `Cc1sc(N(CCc2ccccc2O)c2ccc(C#N)cc2)nc1C(=O)NS(C)(=O)=O` [Compound 379, 2-[4-cyano-N-[2-(2-hydroxyphenyl)ethyl]anilino]-5-methyl-N-methylsulfonyl-thiazole-4-carboxamide], the EC50 is 25.1 nM in assay [1] and 251 nM at human androgen receptor.
Take `Cc1sc(N(Cc2ccccc2)c2ccc(C#N)cc2)nc1C(=O)NS(=O)(=O)CS(C)(=O)=O` [Compound 382, 2-(N-benzyl-4-cyano-anilino)-5-methyl-N-(methylsulfonylmethylsulfonyl)thiazole-4-carboxamide]: the EC50 in assay [1] is 79.4 nM; on human androgen receptor, over 10000 nM.
Turning to `CCOC(=O)CS(=O)(=O)NC(=O)c1nc(N(Cc2ccccc2)c2ccc(C#N)cc2)sc1C` [Compound 384, ethyl 2-[[2-(N-benzyl-4-cyano-anilino)-5-methyl-thiazole-4-carbonyl]sulfamoyl]acetate], the EC50 in assay [1] is 39.8 nM; at human androgen receptor, 251 nM.
With `Cc1sc(N(Cc2ccccc2)c2ccc(C#N)cc2)nc1C(=O)NS(=O)(=O)Cc1cccc(Cl)c1` [Compound 386, 2-(N-benzyl-4-cyano-anilino)-N-[(3-chlorophenyl)methylsulfonyl]-5-methyl-thiazole-4-carboxamide], the EC50 in assay [1] is 126 nM; on human androgen receptor it was over 10000 nM.
As for `Cc1sc(N(Cc2ccccc2)c2ccc(C#N)cc2)nc1C(=O)NS(=O)(=O)CCC(F)(F)F` [Compound 387, 2-(N-benzyl-4-cyano-anilino)-5-methyl-N-(3,3,3-trifluoropropylsulfonyl)thiazole-4-carboxamide], the EC50 in assay [1] was 63.1 nM; on human androgen receptor, 398 nM.
With `[2H]c1c([2H])c([2H])c(C([2H])([2H])N(c2ccc(C#N)cc2)c2nc(C(=O)NS(C)(=O)=O)c(C)s2)c([2H])c1[2H]` [Compound 388, 2-(4-cyano-N-[dideuterio-(2,3,4,5,6-pentadeuteriophenyl)methyl]anilino)-5-methyl-N-methylsulfonyl-thiazole-4-carboxamide], the EC50 in assay [1] was 50.1 nM; on human androgen receptor it was 63.1 nM.
For the compound `Cc1sc(N(Cc2cccc3cccnc23)c2ccc(C#N)cc2)nc1C(=O)NS(C)(=O)=O` [Compound 390, 2-[4-cyano-N-(8-quinolylmethyl)anilino]-5-methyl-N-methylsulfonyl-thiazole-4-carboxamide], the EC50 was 126 nM in assay [1] and 200 nM at human androgen receptor.
The corresponding values for `Cc1sc(N(Cc2ccccc2)c2ccc(C#N)cc2)nc1C(=O)NS(=O)(=O)CCc1ccccc1` [Compound 391, 2-(N-benzyl-4-cyano-anilino)-5-methyl-N-(2-phenylethylsulfonyl)thiazole-4-carboxamide] are 79.4 nM and over 10000 nM.
With `Cc1sc(N(Cc2ccc(OCc3ccccc3)cc2)c2ccc(C#N)cc2)nc1C(=O)NS(C)(=O)=O` [Compound 393, 2-[N-[(4-benzyloxyphenyl)methyl]-4-cyano-anilino]-5-methyl-N-methylsulfonyl-thiazole-4-carboxamide], the figures for the EC50 (in assay [1]; on human androgen receptor) were 31.6 nM and 398 nM, respectively.
Regarding `Cc1sc(N(Cc2ccccc2)c2ccc(C#N)cc2)nc1C(=O)NS(=O)(=O)Cc1ccncc1` [Compound 395, 2-(N-benzyl-4-cyano-anilino)-5-methyl-N-(4-pyridylmethylsulfonyl)thiazole-4-carboxamide], the results for the EC50 (in assay [1]; on human androgen receptor) were 100 nM and 158 nM, respectively.
Regarding `Cc1sc(N(Cc2ccccc2)c2ccc(C#N)cc2)nc1C(=O)NS(=O)(=O)Cc1ccccn1` [Compound 396, 2-(N-benzyl-4-cyano-anilino)-5-methyl-N-(2-pyridylmethylsulfonyl)thiazole-4-carboxamide], the figures for the EC50 (in assay [1]; at human androgen receptor) were 316 nM and 6310 nM, respectively.
The like results for `Cc1sc(N(Cc2ccccc2)c2ccc(C#N)cc2)nc1C(=O)NS(=O)(=O)Cc1cccnc1` [Compound 397, 2-(N-benzyl-4-cyano-anilino)-5-methyl-N-(3-pyridylmethylsulfonyl)thiazole-4-carboxamide] were, in that order, 63.1 nM and 126 nM.
As to `COc1cccc(CCN(c2ccc(C#N)cc2)c2nc(C(=O)NS(C)(=O)=O)c(C)s2)c1` [Compound 399, 2-[4-cyano-N-[2-(3-methoxyphenyl)ethyl]anilino]-5-methyl-N-methylsulfonyl-thiazole-4-carboxamide], the EC50 in assay [1] is 251 nM; on human androgen receptor, over 10000 nM.
